In ChEMBL document CHEMBL4765358, “Discovery of highly potent and selective antiparasitic new oxadiazole and hydroxy-oxindole small molecule hybrids” (Eur J Med Chem, 2020):

Tests used:
[1] = tested on: Trypanosoma cruzi; experiment: Antitrypanosomal activity against Trypanosoma cruzi (MHOM/CH/00/Tulahuen C2, lacZ) amastigotes infected in HFF-1 cells assessed as reduction in parasite growth at 75 uM incubated for 120 hrs by CPRG/Igepal substrate based photometric method relative to control; assay type: functional; conditions: MHOM/CH/00/Tulahuen C2, HFF-1
[2] = Cytotoxicity against human HFF-1 cells assessed as reduction in cell viability incubated for 120 hrs by MTS assay; assay type: cell-based
[3] = tested on: Trypanosoma cruzi; experiment: Antitrypanosomal activity against Trypanosoma cruzi (MHOM/CH/00/Tulahuen C2, lacZ) amastigotes infected in HFF-1 cells assessed as reduction in parasite growth at 300 uM incubated for 120 hrs by CPRG/Igepal substrate based photometric method relative to control; assay type: functional; conditions: MHOM/CH/00/Tulahuen C2, HFF-1
[4] = tested on: Trypanosoma cruzi; experiment: Antitrypanosomal activity against Trypanosoma cruzi (MHOM/CH/00/Tulahuen C2, lacZ) amastigotes infected in HFF-1 cells assessed as reduction in parasite growth incubated for 120 hrs by CPRG/Igepal substrate based photometric method; assay type: functional, organism-based; conditions: MHOM/CH/00/Tulahuen C2, HFF-1, 120 h
[5] = tested on: Leishmania infantum; experiment: Antileishmanial activity against Leishmania infantum MHOM/MA/67/ITMAP-263 infected in THP1 cells assessed as reduction in parasite growth incubated for 120 hrs by Giemsa staining based inverted microscopic analysis; assay type: functional, organism-based; conditions: MHOM/MA/67/ITMAP-263, THP-1, 120 h
[6] = Cytotoxicity against human HepG2 cells assessed as reduction in cell viability incubated for 120 hrs by MTS assay; assay type: cell-based
[7] = tested on: Trypanosoma cruzi; experiment: Antitrypanosomal activity against Trypanosoma cruzi (MHOM/CH/00/Tulahuen C2, lacZ) amastigotes infected in HFF-1 cells assessed as reduction in parasite growth at 150 uM incubated for 120 hrs by CPRG/Igepal substrate based photometric method relative to control; assay type: functional; conditions: MHOM/CH/00/Tulahuen C2, HFF-1

`C=CCOC1(C(=C)c2nc(-c3ccccc3)no2)C(=O)N(CC)c2c(Br)cccc21` (configuration not stated) gave an inhibition at 75 µM [1] of 93.8%, a CC50 at 120 h [2] of 20.3 µM and an inhibition at 300 µM [3] of 100%. It also gave an IC50 [4] of 6.3 µM, an IC50 [5] of 4.86 µM and a CC50 at 120 h [6] of 60.6 µM. For the same compound, the inhibition at 150 µM [7] was 100%.
`C=C(c1nc(-c2ccccc2)no1)C(O)c1cccnc1` (configuration not stated) showed an inhibition at 75 µM [1] of 89.5%, a CC50 at 120 h [2] of over 64 µM and an inhibition at 300 µM [3] of 100%. It also gave an IC50 [4] of 2.2 µM, an IC50 [5] of 8.51 µM and a CC50 at 120 h [6] of 19 µM. The inhibition at 150 µM [7] was 99.6%.
In the case of `C=C(c1nc(-c2ccccc2)no1)C(O)c1cccc(Cl)c1` (configuration not stated), the inhibition at 75 µM [1] is reported as 90.5%, the CC50 at 120 h [2] is reported as over 64 µM and the inhibition at 300 µM [3] is reported as 100%. For the same compound, the IC50 [4] was 6.2 µM, the IC50 [5] was 7.76 µM and the CC50 at 120 h [6] was 20.2 µM. It also gave an inhibition at 150 µM [7] of 98.6%.
`C=C(c1nc(-c2ccccc2)no1)C1(O)C(=O)N(CC)c2ccc(Br)cc21` (configuration not stated) gave an inhibition at 75 µM [1] of 100%, a CC50 at 120 h [2] of over 64 µM and an inhibition at 300 µM [3] of 100%. For the same compound, the IC50 [4] was 2.2 µM, the IC50 [5] was 3.73 µM and the CC50 at 120 h [6] was 11.5 µM. The inhibition at 150 µM [7] was 100%.
Work on `C=C(c1nc(-c2ccccc2)no1)C1(O)C(=O)N(CC)c2ccc([N+](=O)[O-])cc21` (configuration not stated) yielded an inhibition at 75 µM [1] of 78.9%, a CC50 at 120 h [2] of over 64 µM and an inhibition at 300 µM [3] of 100%. The IC50 [4] was over 6.7 µM, the IC50 [5] was 5.13 µM and the CC50 at 120 h [6] was 3.61 µM. It also gave an inhibition at 150 µM [7] of 85.4%.
In the case of `C=C(c1nc(-c2ccccc2)no1)C1(O)C(=O)N(CC)c2ccccc21` (configuration not stated), the inhibition at 75 µM [1] is reported as 100%, the CC50 at 120 h [2] is reported as over 64 µM and the inhibition at 300 µM [3] is reported as 100%. It also gave an IC50 [4] of 2.3 µM, an IC50 [5] of 7.28 µM and a CC50 at 120 h [6] of 26.8 µM. The inhibition at 150 µM [7] was 100%.
